From ChEMBL document CHEMBL1201862, “PubChem BioAssay data set” (2004)
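96-well plates; 48 h exposure; 5 concentrations. Endpoints by linear interpolation between flanking doses. Not reached: highest tested concentration assigned. GI50 = concentration required for 50% inhibition of growth.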 Active and inactive are the calls of the source. Cut-off read from the data, not from the text of the source: active = GI50 up to about 1.1 µM and inactive = higher.

Key:
Experiment in all cases: growth of human tumour cells (NCI), 48 h
[1] = system: HOP-62
[2] = system: UO-31
[3] = system: TK-10
[4] = system: SF-539
[5] = system: HCT-15
[6] = system: U-251
[7] = system: Hs-578T
[8] = system: MOLT-4
[9] = system: SK-MEL-28
[10] = system: NCI-H460
[11] = system: ACHN
[12] = system: OVCAR-8
[13] = system: SK-MEL-5
[14] = system: NCI-H226
[15] = system: NCI/ADR-RES
[16] = system: NCI-H522
[17] = system: M14
[18] = system: CAKI-1
[19] = system: A498
[20] = system: HCT-116
[21] = system: MCF7
[22] = system: SNB-19
[23] = system: HCC 2998
[24] = system: SN12C
[25] = system: K562
[26] = system: HOP-92
[27] = system: KM12
[28] = system: LOX IMVI
[29] = system: 786-0
[30] = system: UACC-62
[31] = system: EKVX
[32] = system: IGROV-1
[33] = system: RPMI-8226
[34] = system: MDA-N
[35] = system: DU-145
[36] = system: SNB-75
[37] = system: UACC-257
[38] = system: HT-29
[39] = system: OVCAR-4
[40] = system: OVCAR-5
[41] = system: NCI-H23
[42] = system: BT-549
[43] = system: SF-268
[44] = system: COLO 205
[45] = system: MDA-MB-435
[46] = system: SK-OV-3
[47] = system: A549
[48] = system: HL-60
[49] = system: MDA-MB-231
[50] = system: SF-295
[51] = system: Malme-3M
[52] = system: OVCAR-3
[53] = system: SW-620
[54] = system: RXF 393
[55] = system: CCRF-CEM
[56] = system: T47D
[57] = system: PC-3
[58] = system: SR
[59] = system: SK-MEL-2

CCOc1cc2c(cc1O)/C(=N\O)C[C@@H]1[C@@H]2CC[C@]2(C)[C@@H](O)CC[C@@H]12
GI50 [1]: < 0.0201 µM (active)
GI50 [2]: 0.147 µM (active)
GI50 [3]: 29.6 µM (inactive)
GI50 [4]: 2.56 nM (active)
GI50 [5]: < 0.0199 µM
GI50 [6]: 0.018 µM (active)
GI50 [7]: < 0.0221 µM (active)
GI50 [8]: < 0.023 µM (active)
GI50 [9]: < 0.0276 µM (active)
GI50 [10]: < 0.0198 µM (active)
GI50 [11]: 0.126 µM (active)
GI50 [12]: < 0.028 µM (active)
GI50 [13]: 0.01 µM (active)
GI50 [14]: 0.0817 µM (active)
GI50 [15]: < 0.0276 µM (active)
GI50 [16]: < 0.0182 µM (active)
GI50 [17]: 0.0144 µM (active)
GI50 [18]: < 0.0235 µM (active)
GI50 [19]: < 0.0272 µM (active)
GI50 [20]: < 0.0211 µM (active)
GI50 [21]: < 19.5 nM (active)
GI50 [22]: < 0.01 µM (active)
GI50 [23]: 2.72 µM (inactive)
GI50 [24]: < 21.6 nM (active)
GI50 [25]: < 0.0173 µM (active)
GI50 [26]: 0.00782 µM (active)
GI50 [27]: 0.168 µM (active)
GI50 [28]: < 0.0363 µM (active)
GI50 [29]: < 0.0208 µM (active)
GI50 [30]: < 0.0191 µM (active)
GI50 [31]: 55.2 µM (inactive)
GI50 [32]: 0.628 µM (active)
GI50 [33]: 0.0238 µM (active)
GI50 [34]: 12.3 nM (active)
GI50 [35]: < 0.0197 µM (active)
GI50 [36]: < 0.01 µM (active)
GI50 [37]: 33.3 µM (inactive)
GI50 [38]: 6.71 µM (inactive)
GI50 [39]: 6.34 µM (inactive)
GI50 [40]: 5.85 µM (inactive)
GI50 [41]: 0.0455 µM (active)
GI50 [42]: 0.0371 µM (active)
GI50 [43]: < 0.031 µM (active)
GI50 [44]: 8.79 µM (inactive)
GI50 [45]: 0.011 µM (active)
GI50 [46]: 0.0374 µM (active)
GI50 [47]: 0.0521 µM (active)
GI50 [48]: < 0.0155 µM (active)

COc1cc(Oc2nc3ccccc3nc2C(=O)O)cc(OC)c1OC
GI50 [1]: > 100 µM (inactive)
GI50 [2]: > 100 µM (inactive)
GI50 [3]: > 100 µM (inactive)
GI50 [5]: > 100 µM
GI50 [6]: > 100 µM (inactive)
GI50 [7]: > 100 µM (inactive)
GI50 [8]: > 100 µM (inactive)
GI50 [49]: > 100 µM (inactive)
GI50 [9]: > 100 µM (inactive)
GI50 [10]: > 100 µM (inactive)
GI50 [11]: > 100 µM (inactive)
GI50 [12]: > 100 µM (inactive)
GI50 [13]: > 100 µM (inactive)
GI50 [14]: > 100 µM (inactive)
GI50 [15]: > 100 µM (inactive)
GI50 [50]: > 100 µM (inactive)
GI50 [16]: > 100 µM (inactive)
GI50 [17]: > 100 µM (inactive)
GI50 [18]: > 100 µM (inactive)
GI50 [19]: > 100 µM (inactive)
GI50 [20]: > 100 µM (inactive)
GI50 [22]: > 100 µM (inactive)
GI50 [23]: > 100 µM (inactive)
GI50 [51]: > 100 µM (inactive)
GI50 [52]: > 100 µM (inactive)
GI50 [25]: > 100 µM (inactive)
GI50 [26]: > 100 µM (inactive)
GI50 [27]: > 100 µM (inactive)
GI50 [28]: > 100 µM (inactive)
GI50 [29]: > 100 µM (inactive)
GI50 [30]: > 100 µM (inactive)
GI50 [53]: > 100 µM (inactive)
GI50 [31]: > 100 µM (inactive)
GI50 [32]: > 100 µM (inactive)
GI50 [54]: > 100 µM (inactive)
GI50 [55]: > 100 µM (inactive)
GI50 [33]: > 100 µM (inactive)
GI50 [56]: > 100 µM (inactive)
GI50 [35]: > 100 µM (inactive)
GI50 [36]: > 100 µM (inactive)
GI50 [57]: > 100 µM (inactive)
GI50 [37]: > 100 µM (inactive)
GI50 [38]: > 100 µM (inactive)
GI50 [39]: > 100 µM (inactive)
GI50 [40]: > 100 µM (inactive)
GI50 [41]: > 100 µM (inactive)
GI50 [58]: > 100 µM (inactive)
GI50 [42]: > 100 µM (inactive)
GI50 [43]: > 100 µM (inactive)
GI50 [44]: > 100 µM (inactive)
GI50 [59]: > 100 µM (inactive)
GI50 [45]: > 100 µM (inactive)
GI50 [46]: > 100 µM (inactive)
GI50 [47]: > 100 µM (inactive)
GI50 [48]: > 100 µM (inactive)
